# US20230364119A1, “AUTOPHAGY ACTIVATOR” (Resonac Corporation, priority 2020, published 2023)
# What was measured:
# [1] = tested on: mTOR gene; assay: mTOR gene expression suppression effect in human senescent fibroblasts (quantitative real-time PCR); type: cell-based
# Protocol: (§1) Normal human fibroblasts (NB1RGB, RIKEN BRC Cell Bank) were cultured until confluent in D-MEM medium (manufactured by Sigma-Aldrich) to which 10% fetal bovine serum (manufactured by MP Biomedicals) was added. Thereafter, the cells were treated with 250 μM aqueous hydrogen peroxide for 2 hours, and cultured for 24 hours in D-MEM medium to which fresh 10% fetal bovine serum was added. The treatment with aqueous hydrogen peroxide and the cell culture operation were repeated three times, and the obtained fibroblasts were used as senescent fibroblasts.
# The prepared senescent fibroblasts were prepared at a seeding density of 10000 cells/cm^2 and cultured for 24 hours in D-MEM medium (manufactured by Sigma-Aldrich) to which 10% fetal bovine serum (manufactured by MP Biomedicals) was added. Next, in Example 8, the inositol derivative A dissolved in purified water was added to the medium such that the final concentration of the inositol derivative A was 10-4% (V/V). […]
# (§2) Then, using Nucleospin (registered trademark) RNA kit (manufactured by Takara Bio Inc.), RNA was extracted from senescent fibroblasts or normal human fibroblasts in each example, and cDNA was synthesized from the obtained RNA. Next, using this cDNA as a template, by quantitative real-time PCR, the expression level of mTOR gene was quantified using primers (manufactured by Takara Bio Inc.) specific to mTOR gene. […]
# [2] = tested on: Beclin 1 gene; assay: Beclin 1 gene expression promoting effect in human senescent fibroblasts (quantitative real-time PCR); type: cell-based
# Protocol: Senescent fibroblasts were prepared by the following procedure.
# as §1
# The prepared senescent fibroblasts were prepared at a seeding density of 10000 cells/cm^2 and cultured for 24 hours in D-MEM medium (manufactured by Sigma-Aldrich) to which 10% fetal bovine serum (manufactured by MP Biomedicals) was added. […]
# as §2, with “each” for “mTOR”, “the LC3 gene, ATG5 gene, and Beclin 1 gene, respectively.” for “mTOR gene.”
smiles,measurement,setting,value
"O[C@H]1[C@H](O)[C@@H](O)[C@H](O)[C@@H](O)[C@H]1O [Comparative Example 2, myo-inositol]",Relative gene expression level mTOR,"[1]; 24 hours, 10^−3% (V/V) inositol or inositol derivative A, with the vitamin derivative of the example where added, GAPDH-standardized, Comparative Example 3 (purified water) = 1.00",0.95
same,"expression level of the mTOR gene, in words",[1]; compared to Comparative Example 3 (purified water only),almost the same
same,Relative gene expression level Beclin 1,"[2]; 24 hours, 10^−3% (V/V) inositol or inositol derivative A, with the vitamin derivative of the example where added, GAPDH-standardized, Comparative Example 1 (purified water) = 1.00",1.30
same,"expression level of the Beclin 1 gene, in words",[2]; compared to Comparative Example 1 (purified water only),more increased
